SMILES strings stand for the structures.

Series [1] is described as follows: Total radioactivity pharmacokinetics in plasma and whole blood. In kind it is in vivo, human. The note with it: single oral 20-mg dose. The method, then:
Each subject was administered a single oral suspension of 20 mg (100 μCi) of [^14C] apremilast in distilled water (240mL total volume). Subjects were fasted for 8 h prior to and 4 h following dose administration. The residual radioactivity in the dosing vials was determined and accounted for approximately 0.3% of the total radioactivity. Dose administration, sample collection, sample processing and determination of total radioactivity were conducted at MDS Pharma Services (Lincoln, NE). Determination of apremilast in plasma, metabolite profiling and metabolite characterization were performed at XenoBiotic Laboratories, Inc. (Plainsboro, NJ).
Urine was collected pre-dose, 0-4, 4-8, 8-12, 12-24 and every 24 h thereafter up to 216h (9 days) following dose administration and was stabilized with one volume of pH 1.5 Sorensen's citrate buffer (25-mM sodium citrate buffer adjusted to pH 1.5). […] Blood (two 5-mL samples for plasma radioactivity counting, a 3-mL sample for whole blood radioactivity counting, a 2-mL sample for apremilast analysis and a 10-mL sample for metabolite profiling) was collected into heparinized tubes at pre-dose, 0.5, 1, 1.5, 2, 2.5, 3, 4, 6, 8, 12, 16, 24, 36, 48, 72, 96, 120, 144 and 168 h following dose administration. Blood samples collected for radioactivity counting were stored at or below -20°C until analysed. […] All urine, faecal homogenates and plasma samples were stored at or below -20°C until analysed.
All radioactivity determinations were performed using a Tri-Carb model 1600TR liquid scintillation counter (PerkinElmer, Wellesley, MA). For plasma and urine analysis, duplicate samples of a known volume were mixed with Ultima Gold XR scintillation cocktail and directly analysed by liquid scintillation counting. […] Using these criteria, the lower limit of quantification in plasma, blood, urine and faeces were 2.07 ng [^14C]apremilast equivalent/mL (ngEq/mL), 2.61 ngEq/g, 1.89 ngEq/mL and 2.52 ngEq/g, respectively. […]

Series [2] deals with PDE4 enzyme isolated from U937 human monocytic cells. As to the kind of experiment: PDE4 inhibition, cAMP hydrolysis assay. It counts as biochemical. As to conditions: PDE4 from U937 cells, cAMP hydrolysis. The procedure: PDE4 enzyme was isolated from U937 human monocytic cells and used for testing inhibition in a cAMP hydrolysis assay as previously described ([Schafer et al. 2010]). For the TNF-α production assay, human peripheral blood mono-nuclear cells (PBMC) were isolated from buffy coat of normal donor blood units (Blood Center of New Jersey, East Orange, NJ) by density centrifugation over Ficoll Hypaque (Pharmacia, Piscataway, NJ). Cells were cultured in RPMI 1640 (Life Technologies, Grand Island, NY) supplemented with 5% AB^+ human serum (Gemini Bio-products, Woodland, CA), 2-mM L-glutamine, 100-U/mL penicillin and 100-μg/mL streptomycin (Life Technologies). PBMC (2×10^5 cells) were plated in 96-well flat-bottom Costar tissue culture plates (Corning, NY) in duplicate. Cells were stimulated with lipopolysaccharides (LPS) (from Salmonella abortus equi; Sigma cat.no. L-1887, St.Louis, MO) at a final concentration of 1 ng/mL in the absence or presence of compounds. The compounds were dissolved in DMSO (Sigma) and subsequent dilutions were done in culture medium immediately before use. The compounds were added to cells 1 h before LPS stimulation. The cells were incubated for 16-18 h at 37°C in 5% CO2, and super-natants were then collected, diluted with culture medium and assayed for TNF-α levels by enzyme-linked immunosorbent assay (ThermoFisher, Rockford, IL). Fifty percent inhibitory concentrations (IC50) for the PDE4 enzymatic and TNF-α assay were calculated by non-linear regression analysis using Prism 5.1 (GraphPad Software). Regression curves were sigmoidal dose response curves with maximum and minimum constrained to 100% and 0%, respectively.

For `CCOc1cc([C@@H](CS(C)(=O)=O)N2C(=O)c3cccc(NC(C)=O)c3C2=O)ccc1OC` [Apremilast, (+)-N-[2-[(lS)-1-(3-ethoxy-4-methoxyphenyl)-2-(methylsulfonyl)ethyl]-1,3-dioxo-2,3-dihydro-lH-isoindol-4-yl]acetamide], in series [1], the “Share of AUC0-∞ for radioactivity in plasma between 0 and 96 h” value was “approximately 90%”; the “Share of AUC0-∞ for radioactivity in plasma from AUC96-∞” value was 10%. The “Plasma total radioactivity Tmax” value in series [1] (median (min-max), listed as [^14C]apremilast) was less than 2 h. In series [2], 74 nM corresponded to half-maximal inhibition (IC50).

These data come from PMC3231940, “Disposition, metabolism and mass balance of [^14C]apremilast following oral administration” (Xenobiotica; the Fate of Foreign Compounds in Biological …, 2011).
